Consider one sequence from publication PMC10940318, “Targeted intracellular delivery of dimeric STINGa by two pHLIP peptides for treatment of solid tumors” (Frontiers in Pharmacology, 2024).

Where “and” joins values, the source holds several entries; their conditions need not be identical. Equal entries are not always repeated.

Series [1] has as its system CT26 murine colorectal cancer tumors. Put plainly: Treatment of CT26 tumors in mice. The settings on record: CT26 tumors 100-150 mm3, female Balb/c, followed 65 days. The class given is in vivo, Balb/c mice. Here is the method:
For the treatment of CT26 tumors, 5 × 10^4 CT26 murine colorectal cancer cells (ATCC, CRL-2638) were injected subcutaneously (SQ) in 100 μL of growth medium into the right flank of female Balb/c mice ranging in age from 7 to 9 weeks (Envigo RMS, Inc.). […] The compounds were dissolved in DMSO as a stock solution and transferred to PBS (vehicle). The residual DMSO in the final solution injected into animals was less than 2%. Tumor volume and body weight were measured 3 times per week throughout the study. Measurements of tumors were performed using calipers, and the tumor volume (V) was calculated with the formula: V=0.52∙L∙W^2 where L is the length and W is the width of the measured tumor. Mice were removed from the study and euthanized when the tumor volume was greater than 2,000 mm^3.

Series [2] in a line: Stability in human plasma. In kind it is in vitro ADME. The settings on record: single donor human plasma, 200 µM, 0-24 h at 37°C, methanol precipitation, HPLC C18, UV 220/280/325 nm.
Experimental: Plasma proteins were precipitated by methanol (1:5 volume ratio of plasma to methanol) and centrifuged for 10 min at 13.4 rpm. The supernatant was collected and analyzed by HPLC using a Zorbax SB-C18 4.6 × 250 mm, 5 μm column with a gradient from 20% to 80% acetonitrile in water containing 0.05% TFA. Chromatograms were recorded at 220 nm, 280 nm and 325 nm.
Another series deals with CT26 tumors. Put plainly: Cytokine levels in tumor and serum by ELISA. In kind it is in vivo, Balb/c mice. As to the method: To establish levels of cytokines in blood and tumor samples, 5 × 10^4 CT26 cancer cells were injected SQ in 100 µL of growth medium into the right flank of female Balb/c mice. When tumors reached 250–500 mm^3 in volume, the mice received a single IP injection of 300 μM 500 µL 2pHLIP-dMSA or no injections. Animals were euthanized at 6- and 24-h post-injection, blood and tumors were collected. Blood samples were kept for 40 min at RT, centrifuged at 5,000 g for 20 min at +4°C and supernatant (serum) was collected. Tumors were frozen in liquid nitrogen. Both the serum and the tumor tissue samples were kept at −80°C until further processing and analysis. The tumor samples were processed while on ice, using a bullet blender (Next Advance) with 1 mm diameter zirconium silicate beads (Next Advance). The supernatant of the processed tumors was used for enzyme-linked immunoassay (ELISA) assays. Matched antibody pair kits for mouse TNF alpha (Sino Biological), mouse IL-6 (Abcam), mouse IFN gamma (Invitrogen), mouse IFN beta (Bio-Techne), and a precoated mouse IFN alpha kit (Invitrogen) were used. For TNF alpha and IFN beta the capture antibodies were diluted in PBS (Cytiva), while the IL-6 and IFN gamma capture antibodies were diluted in their respective coating buffers. The diluted capture antibodies were incubated in the plates overnight at +4°C and washed the next day with PBS/Tween washing buffer (Sigma-Aldrich). The TNF alpha plate was blocked using 2% BSA (Thermo-Scientific) diluted in washing buffer, the IFN beta plate was blocked using 1% BSA diluted in PBS, while the IFN alpha, IFN gamma, and IL-6 plates were blocked using their respective dilution buffers. Blocking was done for 2 h at RT on an orbital shaker at 200 rpm. After blocking, the plates were washed and then incubated with the diluted tumor and serum samples along with the corresponding standard solutions for each ELISA kit. The samples were incubated for 2 h at RT on an orbital shaker at 200 rpm. The TNF alpha plate was incubated for 1 h at RT with a diluted detection antibody conjugated with horseradish peroxidase (HRP). The IL-6, IFN alpha, IFN beta, and IFN gamma plates were incubated for 1 h at RT with a diluted detection antibody conjugated with biotin followed by incubation for 1 h at RT with their respective diluted HRP-streptavidin conjugates. All plates were washed and incubated with 3,3′,5,5′-tetramethylbenzidine (TMB) (Invitrogen) and peroxide solution mixed at a ratio of 1:1 (Thermo Scientific) for up to 20 min, then a stop solution (10% H2SO4) was added to the plates. The signal from the wells was quantified by absorbance measured at 450 nm using a Bio-Rad iMark microplate reader. Antibody standards were used to plot calibration curves.
For orientation: An ELISA detects its analyte on a solid surface through an enzyme-linked reagent.

Series [3] in a line: Body weight of treated mice. The settings on record: two IP injections, 300 µM or 100 µM 500 µL, days 1 and 3. In kind it is in vivo, Balb/c mice. As to the method:
For the treatment of CT26 tumors, 5 × 10^4 CT26 murine colorectal cancer cells (ATCC, CRL-2638) were injected subcutaneously (SQ) in 100 μL of growth medium into the right flank of female Balb/c mice ranging in age from 7 to 9 weeks (Envigo RMS, Inc.). […] 2pHLIP-dMSA was given as two IP injections of 300 μM 500 μL or 100 μM 500 μL (low dose). The compounds were dissolved in DMSO as a stock solution and transferred to PBS (vehicle). The residual DMSO in the final solution injected into animals was less than 2%. Tumor volume and body weight were measured 3 times per week throughout the study. Measurements of tumors were performed using calipers, and the tumor volume (V) was calculated with the formula: V=0.52∙L∙W^2 where L is the length and W is the width of the measured tumor. Mice were removed from the study and euthanized when the tumor volume was greater than 2,000 mm^3.

A further series relates to CT26 cancer cells. Put plainly: Re-challenge of tumor-free mice with CT26 cancer cells. The class given is in vivo, Balb/c mice. The settings on record: 11 survivors of both dose groups, contralateral flank, kept 40 more days. The text has this:
In the 2pHLIP-dMSA treated groups the mice that stayed tumor-free were re-challenged with tumor cells injected into the tumor-free flank on day 65 after the first injection of 2pHLIP-dMSA. Tumor-free mice were kept for an additional 40 days (total of 105 days after the treatment with 2pHLIP-dMSA) and then were euthanized.

Where [4] appears, read: single IP injection 300 µM 500 µL, 6 and 24 h.

On to “ADQDNPWRAYLDLLFPTDTLLLDLLWCG [2pHLIP-dMSA]”, for which, in series [1] (two IP injections of 100 µM 500 µL (l.d.) on days 1 and 3), the “mice survived out of treated, lower dose” value is 4 out of 10 and 4/10. Further, the “mice with tumor eradicated / survived out of treated” value in series [1] (two IP injections of 300 µM 500 µL on days 1 and 3) is listed as 7/10. The “stability in human plasma (in words)” value in series [2] is on record as “very high”. Moreover, the “IL-6 level in blood (Figure 4D, in words)” value with CT26 tumors (6 h after single IP injection 300 µM 500 µL, returned to normal at 24 h) is reported as “slight increase”. Further, in the series on CT26 tumors (6 h after single IP injection 300 µM 500 µL, vs untreated mice), the “increase of TNF-α level in tumors” value is reported as 23 fold. The “TNF-α level in tumors (in words)” value in the series on CT26 tumors (24 h after single IP injection 300 µM 500 µL) was “fell to a normal level”. In the series with CT26 tumors (setting [4]), the “level of IFN-α in tumors and serum (in words)” value is “did not change much”; the “level of IFN-γ in tumors and serum (in words)” value is reported as “did not change much”. In the series on CT26 tumors (single IP injection 300 µM 500 µL, treated and untreated mice), the “TNF-α level in serum (in words)” value was “insignificant”. In addition, the “IFN-β level in serum (in words)” value with CT26 tumors (single IP injection 300 µM 500 µL, two orders of magnitude lower than in tumors) is recorded as “slight increase”. The “increase of tumor level of IFN-β” value in the series with CT26 tumors (single IP injection 300 µM 500 µL, vs untreated mice) is 8 fold. In addition, the “body weight change after treatment (in words)” value in series [3] was “temporary weight loss followed by complete recovery and regain of weight”. Further, in the series with CT26 cancer cells, the “tumor development after re-injection of cancer cells on day 65” value is listed as “none of them developed tumors”.
